Measured values taken from article PMC8597046, “Use of Mixture Dosing and Nonlinear Mixed Effect Modeling of Eight Environmental Contaminants in Rabbits to Improve Extrapolation Value of Toxicokinetic Data” (Environmental Health Perspectives, 2021).

Tests used:
[1] = TK assay, oral mixture dosing: serum concentrations and noncompartmental analysis (sparse data); conditions: for Serum concentration: oral
Description: (§1) The experiment was carried out on thirty 10-wk old female New Zealand white rabbits (INRA 1777 line) weighing 2.37±0.14kg . […] Blood samples were taken at the designated time points post IV and oral administration: 15 min, 30 min, 1 h, 2 h, 4 h, 8 h, 12 h, 24 h, 3 d, 7 d, and 28 d from groups of 3 or 6 rabbits at each sampling time. Each rabbit was sampled 3 times and 3 rabbits were sampled at each sampling time, except at 30 min post administration, when 6 samples were collected to provide a sufficient blood volume for assaying the compounds. The doses and assay time points were selected to allow the calculation of TK parameters (Table 1) based on preliminary TK data. Residual concentrations of the compounds, and their possible evolution over time, were determined by sampling six entirely untreated rabbits during the TK study on the day of drug administrations, then 14 d and 28 d later.
(§2) The volume administered was adjusted to the animal’s body weight (BW) recorded the day before.
(§3) Intravenous administrations were performed via an indwelling catheter (22G Terumo, 0.9×25mm ) just after its insertion into an ear vein. […] For oral administrations, the mixture of all compounds ( 4mL/kg ) was deposited directly in the mouth of rabbits using a catheter (22G BD Insyte 22G, 0.9×25mm ). Prior to the study, the rabbits had been trained to gradually swallow water and then corn oil.
(§4) Blood samples were collected from the auricular artery using a 20 G needle ( 0.9×25mm ) and a dry tube. The first two blood samples were 8–10mL in volume, whereas a large volume (about 20mL ) was obtained antemortem immediately after electrical stunning (95LX rabbit stunner; Burdis), followed by exsanguination.
(§5) Serum concentration-time profiles of the different compounds were first analyzed using a noncompartmental approach (NCA) involving a sparse data option. Sparse data methodology consists of calculating TK parameters based on the mean profile of all the subjects in the dataset and is appropriate when a rich data series cannot be obtained, as in the present experiment ([FDA 1999]). The area under the concentration time curve ( AUC0−tlast ) and the area under the first moment curve ( AUMC0−tlast ) from dosing time ( t=0 ) to the time of the last measurable concentration were calculated using the linear trapezoidal rule after IV and oral dosing. The area under the serum concentration time curve from dosing time to infinity ( AUC0−inf ) was obtained by adding to AUC0−tlast the area extrapolated from the time of the last measurable concentration to infinity by dividing the last quantifiable serum concentration by the slope of the terminal phase ( λZ ), as estimated by linear regression using the best fit option of Phoenix®.
(§6) The clearance (CL) and apparent clearance (CL_F) were respectively estimated after IV and oral administrations by dividing the administered dose by the AUC0−inf calculated for each analyte.
(§7) The terminal half-life (HL) was estimated with Equation 1: (1) HL=0.69315/λZ where λz is the slope of the terminal phase.
The oral bioavailability (F) was estimated using Equation 2: (2) F=AUCvo0−tlast×Doseiv/AUCiv0−tlast×Dosevo, where AUCiv0−tlast and AUCvo0-tlast are the values of AUC0−tlast obtained after IV and oral dosing, respectively, and Doseiv and Dosevo are the IV and oral doses.

[2] = TK assay, intravenous mixture dosing: serum concentrations and noncompartmental analysis (sparse data); conditions: for Serum concentration: IV
Description: as §1, §2, §3, §4, §5, §6, §7
The mean residence time (MRT) was estimated using Equation 3: (3) MRT=AUMCiv0−tlast /AUCiv0−tlast , where AUCMiv0−tlast and AUCiv0−tlast are the values of AUMC0−tlast and AUC0−tlast obtained after IV dosing.
The steady-state volume of distribution ( VSS ) was estimated using Equation 4: (4) VSS=CL×MRT, with CL and MRT as defined above.

[3] = oral mixture dosing, NCA, n=12, MEHP after oral DEHP

In the case of `O=S(=O)(O)C(F)(F)C(F)(F)C(F)(F)C(F)(F)C(F)(F)C(F)(F)C(F)(F)C(F)(F)F` [nPFOS, linear isomer of perfluorooctane sulfonate], the “Oral bioavailability estimated by NCA” value ([1]; NCA) was “greater than 100%”, the “CL_F (apparent clearance)” value ([1]; oral mixture dosing, NCA, n=12) was 4.99 mL/day/kg and the MRT [1, 3] was 69.92 days. For the same molecule, the Tmax [1, 3] was 1 days, the “VZ_F (apparent volume of distribution associated to the terminal phase)” value [1, 3] was 0.359 L/kg and the Serum concentration ([1]; rabbit 13, 4.30 h, MEHP after oral DEHP) was 710 nM. The Serum concentration ([1]; rabbit 14, 0.37 h, MEHP after oral DEHP) was 230 nM, the Serum concentration ([1]; rabbit 14, 4.17 h, MEHP after oral DEHP) was 890 nM and the Serum concentration ([1]; rabbit 15, 4.05 h, MEHP after oral DEHP) was 1040 nM. For the same molecule, the Serum concentration ([1]; rabbit 15, 23.98 h, MEHP after oral DEHP) was 1280 nM, the Serum concentration ([1]; rabbit 16, 0.55 h, MEHP after oral DEHP) was 140 nM and the Serum concentration ([1]; rabbit 16, 72.00 h, MEHP after oral DEHP) was 1100 nM. The Serum concentration ([1]; rabbit 17, 0.53 h, MEHP after oral DEHP) was 120 nM, the Serum concentration ([1]; rabbit 17, 72.00 h, MEHP after oral DEHP) was 1540 nM and the Serum concentration ([1]; rabbit 18, 0.55 h, MEHP after oral DEHP) was 290 nM. It also gave a Serum concentration ([1]; rabbit 18, 71.96 h, MEHP after oral DEHP) of 1250 nM, a Serum concentration ([1]; rabbit 19, 12.00 h, MEHP after oral DEHP) of 660 nM and a Serum concentration ([1]; rabbit 19, 168.02 h) of 1010 nM. The Serum concentration ([1]; rabbit 20, 12.00 h, MEHP after oral DEHP) was 690 nM, the Serum concentration ([1]; rabbit 20, 168.00 h) was 1070 nM and the Serum concentration ([1]; rabbit 21, 12.00 h, MEHP after oral DEHP) was 810 nM. For the same molecule, the Serum concentration ([1]; rabbit 21, 168.00 h) was 1060 nM, the Serum concentration ([1]; rabbit 22, 672.02 h) was 450 nM and the Serum concentration ([1]; rabbit 23, 671.96 h) was 820 nM. For the same molecule, the Serum concentration ([1]; rabbit 24, 672.02 h) was 1020 nM, the “AUC0−inf” value ([1]; serum, oral mixture dosing, NCA, n=12, MEHP after oral DEHP) was 1,919 μmol×h/L and the Cmax ([1]; serum, oral mixture dosing, NCA, n=12, doses in Table 3 r3, MEHP measured after oral DEHP, BPSG after BPS) was 1300 nM. The CL ([2]; IV mixture dosing, NCA, n=12) was 8.3 mL/day/kg, the MRT ([2]; IV mixture dosing, NCA, n=12) was 40.5 days and the VSS ([2]; IV mixture dosing, NCA, n=12) was 0.336 L/kg. For the same molecule, the VZ ([2]; IV mixture dosing, NCA, n=12) was 0.353 L/kg, the Serum concentration ([2]; rabbit 1, 0.30 h) was 320 nM and the Serum concentration ([2]; rabbit 1, 4.38 h) was 280 nM. The Serum concentration ([2]; rabbit 1, 24.03 h) was 260 nM, the Serum concentration ([2]; rabbit 2, 0.28 h) was 430 nM and the Serum concentration ([2]; rabbit 2, 4.05 h) was 280 nM. For the same molecule, the Serum concentration ([2]; rabbit 3, 0.35 h) was 380 nM, the Serum concentration ([2]; rabbit 3, 4.05 h) was 370 nM and the Serum concentration ([2]; rabbit 4, 0.62 h) was 350 nM. The Serum concentration ([2]; rabbit 4, 72.00 h) was 290 nM, the Serum concentration ([2]; rabbit 5, 0.75 h) was 380 nM and the Serum concentration ([2]; rabbit 5, 72.03 h) was 310 nM. The Serum concentration ([2]; rabbit 6, 0.57 h) was 360 nM, the Serum concentration ([2]; rabbit 6, 71.97 h) was 330 nM and the Serum concentration ([2]; rabbit 7, 11.98 h) was 290 nM. It also gave a Serum concentration ([2]; rabbit 7, 168.00 h) of 270 nM, a Serum concentration ([2]; rabbit 8, 12.02 h) of 240 nM and a Serum concentration ([2]; rabbit 8, 167.92 h) of 230 nM. It also gave a Serum concentration ([2]; rabbit 9, 11.97 h) of 310 nM, a Serum concentration ([2]; rabbit 9, 168.00 h) of 280 nM and a Serum concentration ([2]; rabbit 10, 671.96 h) of 150 nM. For the same molecule, the Serum concentration ([2]; rabbit 11, 672.00 h) was 160 nM, the Serum concentration ([2]; rabbit 12, 671.83 h) was 190 nM and the “AUC0−inf” value ([2]; serum, IV mixture dosing, NCA, n=12) was 330 µM·h. For the same molecule, the Cmax ([2]; serum, IV mixture dosing, NCA, n=12, doses in Table 2 r3, BPSG after BPS dosing) was 427 nM and the half-life ([2]; terminal, IV mixture dosing, NCA, n=12) was 29.5 days.
